According to patent US20230190954A1, “COMPOSITION AND METHODS FOR TREATMENT OF PRIMARY CILIARY DYSKINESIA” (TRANSLATE BIO, INC., priority 2020, published 2023):

Columns and labels:
mouse lungs [1] = test: In vivo screen of cationic lipids: FFL mRNA-LNP pulmonary delivery, IVIS luciferase imaging; set-up: species or system male CD1 mice; settings: for selection based on performance in the in vivo screen: about 150 cationic lipids tested; for potency as determined by the average radiance detected in mouse lungs: FFL mRNA-LNP, single intratracheal administration, about 5 hours post-dose; for suitability/performance in liposomes administered through pulmonary delivery via nebulization: mouse, in vivo
Protocol: In this example, various cationic lipids were tested for in vivo efficacy when mRNA encapsulated in lipid nanoparticles (mRNA-LNP) were administered to mice by pulmonary delivery. The cationic lipids were tested for both potency, as determined by levels of protein production, and tolerability, as determined by side effects associated with clearance and metabolism.
About 150 cationic lipids were tested. (FIG. 9). Each cationic lipid was used in preparing lipid nanoparticles encapsulating mRNA encoding firefly luciferase protein (FFL mRNA) according to methods known in the art. For example, suitable methods for mRNA encapsulation include methods described in International Publication Nos. WO2016/004318 and WO 2018/089801, which is hereby incorporated by reference in its entirety. The tested lipid nanoparticles comprised a lipid component consisting of a cationic lipid, a non-cationic lipid (DOPE), a PEG-modified lipid (DMG-PEG2K), and optionally cholesterol.
Lipid nanoparticle formulations comprising FFL mRNA were administered to male CD1 mice by a single intratracheal administration via nebulization using a Microsprayer®. At approximately 5 hours post-dose, the animals were dosed with luciferin by intraperitoneal injection and all animals were imaged using an IVIS imaging system to measure luciferase production in the lung. […] Some cationic lipids remarkably had greater than 50-fold increase in pulmonary protein expression as compared to other cationic lipids.

mouse lungs [2] = test: as above; set-up: species or system male CD1 mice; settings: pulmonary-delivered (e.g., nebulized) FFL mRNA in LNP with this cationic lipid, threshold lines in FIG. 9

Row | Compound | selection based on performance in the in vivo screen (mouse lungs [1]) | potency as determined by the average radiance detected in mouse lungs (mouse lungs [1]) | suitability/performance in liposomes administered through pulmonary delivery via nebulization (mouse lungs [1]) | historical radiance/expression of pulmonary-delivered FFL mRNA-LNP (mouse lungs [2])
1 | CCCCCCCCCCCCC(O)CN(CCCC(=O)Oc1c(OC)cc(C(=O)OCCCN(C)C)cc1OC)CC(O)CCCCCCCCCCCC (stereo not shown) [SY-3-E14-DMAPr] | selected for further investigation |  |  | 
2 | CCCCC/C=C\C/C=C\CCCCCCCC(=O)OCC(COC(=O)CCCCCCC/C=C\C/C=C\CCCCC)(COC(=O)CCCCCCC/C=C\C/C=C\CCCCC)NCCS(=O)(=O)NCCN(C)C [GL-TES-SA-DME-E18-2, 2-((2-(N-(2-(dimethylamino)ethyl)sulfamoyl)ethyl)amino)-2-((((9Z,12Z)-octadeca-9,12-dienoyl)oxy)methyl)propane-1,3-diyl (9Z,9′Z,12Z,12′Z)-bis(octadeca-9,12-dienoate)] | selected for further investigation | particularly high potency | performed particularly well | 
3 | CCCCCCCC(=O)OCCCCCCCCCOC(=O)CC(CC(=O)OCCCCCCCCCOC(=O)CCCCCCC)(OC(=O)CCN(C)C)C(=O)OCCCCCCCCCOC(=O)CCCCCCC [TL1-10D-DMA] | selected for further investigation |  |  | 
4 | CCCCCCCCOC(=O)CC(CC(=O)OCCCCCCCC)(OC(=O)CCN(C)C)C(=O)OCCCCCCCC [TL1-01D-DMA, trioctyl 2-((3-(dimethylamino)propanoyl)oxy)propane-1,2,3-tricarboxylate] | selected for further investigation | particularly high potency | performed particularly well | 
5 | CC(C)CCCC(C)[C@H]1CCC2C3CC=C4C[C@@H](OC(=O)CCc5c[nH]cn5)CC[C@]4(C)C3CC[C@@]21C (stereo partly shown) [ICE, imidazole cholesterol ester] |  |  |  | around 10^4 p/s/cm^2sr
6 | CCCCCCCCCCCCCCOC(=O)CC(CC(=O)OCCCCCCCCCCCCCC)(OC(=O)CCN(C)C)C(=O)OCCCCCCCCCCCCCC [TL1-04D-DMA] | selected for further investigation | particularly high potency | performed particularly well | 
7 | CC(C)CCCC(C)C1CCC2C3CC=C4CC(SSCCNC(=N)N)CCC4(C)C3CCC12C (stereo not shown) [HGT4002] | selected for further investigation |  |  | 
8 | CCCCCCCCC(O)CN(CCCCC(=O)OCCN1CC(C)N(CCOC(=O)CCCCN(CC(O)CCCCCCCC)CC(O)CCCCCCCC)CC1C)CC(O)CCCCCCCC (stereo not shown) [HEP-E4-E10] | selected for further investigation | particularly high potency | performed particularly well | 
9 | CCCCCCCCC(O)CN(CCCC(=O)OCCN1CC(C)N(CCOC(=O)CCCN(CC(O)CCCCCCCC)CC(O)CCCCCCCC)CC1C)CC(O)CCCCCCCC (stereo not shown) [HEP-E3-E10] | selected for further investigation | particularly high potency | performed particularly well | 
10 | CCCCC/C=C\C/C=C\CCCCCCCC(=O)OCC(COC(=O)CCCCCCC/C=C\C/C=C\CCCCC)(COC(=O)CCCCCCC/C=C\C/C=C\CCCCC)NCCS(=O)(=O)NCCCN(C)C [GL-TES-SA-DMP-E18-2] | selected for further investigation | particularly high potency | performed particularly well | 
